Measured values taken from ChEMBL document CHEMBL1201862, “PubChem BioAssay data set” (2004).
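Grown in 96-well plates, cells were treated for 48 hours with each compound at five concentrations. Insufficient inhibition: endpoint recorded as highest concentration tested. GI50 = concentration required for 50% inhibition of growth.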 Calls of active or inactive are those of the source. Cut-off read from the data, not from the text of the source: active = GI50 up to about 1.1 µM and inactive = higher.

Key:
Test in all cases: DTP human tumour cell line panel, 48 h
[1] = system: OVCAR-4
[2] = system: Hs-578T
[3] = system: MDA-MB-231
[4] = system: MOLT-4
[5] = system: K562
[6] = system: IGROV-1
[7] = system: DU-145
[8] = system: HCT-15
[9] = system: Malme-3M
[10] = system: SK-MEL-5
[11] = system: SR
[12] = system: TK-10
[13] = system: NCI-H226
[14] = system: MDA-N
[15] = system: UACC-62
[16] = system: OVCAR-5
[17] = system: SF-295
[18] = system: HCT-116
[19] = system: NCI/ADR-RES
[20] = system: HOP-92

SMILES	GI50 [1]	GI50 [2]	GI50 [3]	GI50 [4]	GI50 [5]	GI50 [6]	GI50 [7]	GI50 [8]	GI50 [9]	GI50 [10]	GI50 [11]	GI50 [12]	GI50 [13]	GI50 [14]	GI50 [15]	GI50 [16]	GI50 [17]	GI50 [18]	GI50 [19]	GI50 [20]
O=C(O)c1cc(-c2ccc3c(O)ccc(O)c3c2)ccc1O	16.5 µM (inactive)	18.7 µM (inactive)	23.2 µM (inactive)	3.01 µM (inactive)	5.14 µM (inactive)	16.7 µM (inactive)	24 µM (inactive)	16.9 µM	18.7 µM (inactive)	14.7 µM (inactive)	3.51 µM (inactive)	20.3 µM (inactive)	19.7 µM (inactive)	16.7 µM (inactive)	18.2 µM (inactive)	18.3 µM (inactive)	18.2 µM (inactive)	16.8 µM (inactive)	28.1 µM (inactive)	–
O=C1/C(=C/c2cccc3ccccc23)CCc2ccc([N+](=O)[O-])cc21	–	9.57 µM (inactive)	28.5 µM (inactive)	> 100 µM (inactive)	7.16 µM (inactive)	31.4 µM (inactive)	51.6 µM (inactive)	17.9 µM	17.3 µM (inactive)	–	> 10 µM (inactive)	27.2 µM (inactive)	27.6 µM (inactive)	8.81 µM (inactive)	13.3 µM (inactive)	> 100 µM (inactive)	11.9 µM (inactive)	14.5 µM (inactive)	16.3 µM (inactive)	23 µM (inactive)
CCc1ccc(CCC(=O)O)nc1	> 100 µM (inactive)	> 100 µM (inactive)	> 100 µM (inactive)	–	> 100 µM (inactive)	> 100 µM (inactive)	> 100 µM (inactive)	> 100 µM	> 100 µM (inactive)	> 100 µM (inactive)	> 100 µM (inactive)	> 100 µM (inactive)	> 100 µM (inactive)	> 100 µM (inactive)	> 100 µM (inactive)	> 100 µM (inactive)	> 100 µM (inactive)	> 100 µM (inactive)	> 100 µM (inactive)	> 100 µM (inactive)
O=C1CN(/N=C/c2ccc(-c3ccc(F)cc3)o2)C(=O)N1	–	45.5 µM (inactive)	> 100 µM (inactive)	91.4 µM (inactive)	35 µM (inactive)	41.6 µM (inactive)	> 100 µM (inactive)	39 µM	47.5 µM (inactive)	26.4 µM (inactive)	24 µM (inactive)	69.2 µM (inactive)	32.2 µM (inactive)	16.9 µM (inactive)	45.5 µM (inactive)	> 100 µM (inactive)	55.7 µM (inactive)	50.8 µM (inactive)	25.9 µM (inactive)	0.394 µM (active)
CC(=O)O[C@H]1C#C/C=C\C#CC[C@@H]2C(=O)N[C@@H]12	> 100 µM (inactive)	47.3 µM (inactive)	> 100 µM (inactive)	0.231 µM (active)	> 62.8 µM (inactive)	22.8 µM (inactive)	19.2 µM (inactive)	22.4 µM	22.9 µM (inactive)	29.9 µM (inactive)	–	> 59.7 µM (inactive)	25.7 µM (inactive)	81.7 µM (inactive)	26.4 µM (inactive)	> 100 µM (inactive)	24.5 µM (inactive)	27 µM (inactive)	20.7 µM (inactive)	46.2 µM (inactive)
COC1OC(COC(=O)NCCCCC(=O)C(F)(F)F)C(O)C(O)C1O (stereo not given)	> 100 µM (inactive)	> 100 µM (inactive)	> 100 µM (inactive)	> 100 µM (inactive)	> 100 µM (inactive)	> 100 µM (inactive)	> 100 µM (inactive)	> 100 µM	> 100 µM (inactive)	> 100 µM (inactive)	> 100 µM (inactive)	> 100 µM (inactive)	–	> 100 µM (inactive)	> 100 µM (inactive)	> 100 µM (inactive)	> 100 µM (inactive)	> 100 µM (inactive)	> 100 µM (inactive)	> 100 µM (inactive)
CCCCCCCCCCCCCCCCCCOCC(O)COP(=O)(O)OCC1OC(n2ccc(N)nc2=O)C(O)C1O (stereo not given)	28.3 µM (inactive)	36.4 µM (inactive)	25.8 µM (inactive)	0.908 µM (active)	28.2 µM (inactive)	9.62 µM (inactive)	98.2 µM (inactive)	15.5 µM	7.05 µM (inactive)	29.9 µM (inactive)	17 µM (inactive)	14.2 µM (inactive)	> 100 µM (inactive)	93.8 µM (inactive)	23.9 µM (inactive)	33.6 µM (inactive)	22.7 µM (inactive)	10.9 µM (inactive)	19.1 µM (inactive)	19.9 µM (inactive)
COc1cc(/C=C2\N=C(c3ccccc3)N(c3nc4cc(C)c(C)cc4s3)C2=O)ccc1O	20.7 µM (inactive)	30.8 µM (inactive)	66.1 µM (inactive)	2.75 µM (inactive)	35.3 µM (inactive)	21.4 µM (inactive)	61.7 µM (inactive)	45.6 µM	–	31.3 µM (inactive)	19.9 µM (inactive)	79.4 µM (inactive)	–	15.2 µM (inactive)	26.6 µM (inactive)	40.6 µM (inactive)	66.8 µM (inactive)	19.3 µM (inactive)	42.3 µM (inactive)	21.9 µM (inactive)
O=C1O/C(=C(/Br)c2ccc(Cl)c(Cl)c2)c2ccccc21	> 10 µM (inactive)	> 10 µM (inactive)	> 10 µM (inactive)	> 10 µM (inactive)	> 10 µM (inactive)	> 10 µM (inactive)	> 10 µM (inactive)	> 10 µM	–	> 10 µM (inactive)	> 10 µM (inactive)	> 10 µM (inactive)	> 10 µM (inactive)	> 10 µM (inactive)	> 10 µM (inactive)	> 10 µM (inactive)	> 10 µM (inactive)	> 10 µM (inactive)	> 10 µM (inactive)	> 10 µM (inactive)
Cc1cn(C2OC(CO[Si](C)(C)C(C)(C)C)/C(=C\C#N)C2O[Si](C)(C)C(C)(C)C)c(=O)[nH]c1=O (stereo not given)	58.3 µM (inactive)	> 100 µM (inactive)	> 100 µM (inactive)	> 100 µM (inactive)	1.93 µM (inactive)	–	81.8 µM (inactive)	14.4 µM	–	6.87 µM (inactive)	> 100 µM (inactive)	> 100 µM (inactive)	> 100 µM (inactive)	> 100 µM (inactive)	44.4 µM (inactive)	> 100 µM (inactive)	6.67 µM (inactive)	22.9 µM (inactive)	> 100 µM (inactive)	> 100 µM (inactive)
CC(=O)N1c2ccccc2C2=NN(C)C(=N)SC21 (stereo not given)	> 100 µM (inactive)	> 100 µM (inactive)	> 100 µM (inactive)	> 100 µM (inactive)	> 100 µM (inactive)	–	> 100 µM (inactive)	> 100 µM	68.4 µM (inactive)	–	> 100 µM (inactive)	> 100 µM (inactive)	> 100 µM (inactive)	> 100 µM (inactive)	–	> 100 µM (inactive)	50.4 µM (inactive)	> 100 µM (inactive)	> 100 µM (inactive)	–
[O-][n+]1onc(-c2ccccc2)c1CN1CCOCC1	10.4 µM (inactive)	68.1 µM (inactive)	> 100 µM (inactive)	23.3 µM (inactive)	51.2 µM (inactive)	80 µM (inactive)	> 100 µM (inactive)	72.9 µM	> 100 µM (inactive)	> 100 µM (inactive)	–	> 100 µM (inactive)	> 100 µM (inactive)	> 100 µM (inactive)	68.1 µM (inactive)	> 100 µM (inactive)	> 100 µM (inactive)	> 100 µM (inactive)	> 100 µM (inactive)	> 100 µM (inactive)
Cc1ccc(C2SC(=N)Nc3c2c(C)nn3C(=O)c2ccccc2O)cc1 (stereo not given)	> 10 µM (inactive)	1.51 µM (inactive)	> 10 µM (inactive)	7.43 µM (inactive)	4.35 µM (inactive)	2.81 µM (inactive)	> 10 µM (inactive)	> 10 µM	> 10 µM (inactive)	4.37 µM (inactive)	> 10 µM (inactive)	> 10 µM (inactive)	> 10 µM (inactive)	7.14 µM (inactive)	1.41 µM (inactive)	> 10 µM (inactive)	–	> 10 µM (inactive)	> 10 µM (inactive)	0.475 µM (active)
COC(=O)[C@]1(c2cc3ccccc3[nH]2)CC2CN(C(=O)OCc3ccccc3)C1CC2=O (stereo not given in full)	28.1 µM (inactive)	19.4 µM (inactive)	12.8 µM (inactive)	15 µM (inactive)	18.7 µM (inactive)	29.7 µM (inactive)	38.8 µM (inactive)	27.5 µM	20.7 µM (inactive)	17.1 µM (inactive)	–	53.5 µM (inactive)	18.2 µM (inactive)	24.8 µM (inactive)	17.1 µM (inactive)	14.1 µM (inactive)	25.4 µM (inactive)	22.8 µM (inactive)	29.3 µM (inactive)	20.4 µM (inactive)
Cc1cnc2nc(-c3cccc4ccccc34)cc(O)c2c1	16.4 µM (inactive)	0.00107 µM (active)	0.00493 µM (active)	0.000955 µM (active)	0.000462 µM (active)	0.00552 µM (active)	0.00394 µM (active)	0.000454 µM	0.000289 µM (active)	0.000359 µM (active)	0.000352 µM (active)	–	0.01 µM (active)	0.000216 µM (active)	0.000518 µM (active)	0.00351 µM (active)	0.000887 µM (active)	0.000652 µM (active)	0.000428 µM (active)	0.182 µM (active)
